Data published in patent US20230083885A1, “MODULATORS OF INTEGRATED STRESS RESPONSE PATHWAY” (Praxis Biotech LLC, priority 2021, published 2023).
Like-named read-outs stand apart in the source and are kept apart here.

How the values were obtained:
ATF4 = ATF4 expression inhibition assay (ATF4 5'UTR luciferase reporter, thapsigargin-stressed); format: cell-based; conditions: Homo sapiens, HEK-293T, read-out: ATF4 inhibition
Procedure: The ATF4 reporter was prepared by fusing the human full length 5′UTR of ATF4 (NCBI Accession No. BC022088.2) upstream of the firefly luciferase coding sequence lacking the initiator methionine. The fused sequence was cloned into pLenti-EF1a-C-Myc-DDK-IRES-Puro cloning vector (Origen #PS100085) using standard methods.
HEK293T cells carrying the ATF4 luciferase reporter were plated on 96-well plates (Nunc) at 10,000 cells per well. Cells were treated two days after seeding with 100 nM thapsigargin (Tg) (Sigma-Aldrich #T9033) in the presence of different concentrations of selected compounds ranging from 0.1 nM to 10 μM. Cells without treatment or cells treated with Tg alone were used as controls. Assay plates containing cells were incubated for 3 hours at 37° C.
Luciferase reactions were performed using Luciferase Assay System (Promega #E1501) as specified by the manufacturer. Luminescence was read with an integration time of 1 s and a gain of 110 using a Cytation-5 multi-mode microplate reader (BioTek).

[1] = test system: Chinese hamster ovary (CHO) cells; assay: Protein synthesis assay (puromycin incorporation, Western blot); format: cell-based; conditions: Cricetulus griseus, read-out: % Protein synthesis relative to untreated (1 μM test compound)
Procedure: Chinese hamster ovary (CHO) cells were maintained at 37° C. and 5% CO2 in Dulbecco's Modified Eagle's Media (DMEM) supplemented with 10% fetal bovine serum, 2 mM L-glutamine, 100 U/ml penicillin, and 100 μg/ml streptomycin. After reaching 80% of confluence, cells were detached and seeded on 6 well plates in complete media, allowed to recover overnight and treated for 2 hours with 1 μM of the test compound (to assess protein synthesis levels in unstressed condition), or for 2 hours with 300 nM Tg in the presence of 1 μM of the test compound (to assess the recovery of protein synthesis in a stressed condition). Cells with Tg alone were used as controls.
After the 2 hours treatments, media were replaced by adding 10 μg/ml puromycin (Sigma Aldrich #P8833) in complete media for 30 min. Media were removed and cells were lysed with SDS-PAGE lysis buffer. Lysates were transferred to 1.5 ml tubes and sonicated for 3 min and total protein amount were quantified using BCA Protein Assay Kit (Pierce). Equal amount of protein (30 μg) was loaded on SDS-PAGE gels.
A HRP-conjugated secondary antibody (Rockland) was employed to detect immune-reactive bands using enhanced chemiluminescence (ECL Western Blotting Substrate, Pierce). Quantification of protein bands was done by densitometry using ImageJ software.
The percentage levels were normalized to the media alone condition, which correspond to 100% protein synthesis. […]

[2] = HEK293T cells carrying ATF4 luciferase reporter, 100 nM thapsigargin, 3 hours
[3] = unstressed CHO cells (without Tg), 1 μM test compound, 2 hours, media alone = 100%

Row | Structure (SMILES) | IC50 (ATF4; [2]) | further results
1 | O=C(COc1ccc(Cl)c(F)c1)N[C@H]1CC[C@H](c2nnc([C@@H]3CNc4cc(Cl)ccc4O3)o2)CC1 (single isomer, unassigned) [Compound 42] | < 10 nM | activity at 1 µM [1, 3]: 79.9%
2 | O=C(COc1ccc(Cl)c(F)c1)N[C@H]1CC[C@H](c2nnc([C@H]3CNc4cc(Cl)ccc4O3)o2)CC1 (single isomer, unassigned) [Compound 43] | < 10 nM | activity at 1 µM [1, 3]: 86.3%
3 | O=C(Nc1ccc2cc(Cl)ccc2n1)[C@H]1CC[C@H](c2nnc([C@@H]3CNc4cc(Cl)ccc4O3)o2)CC1 (single isomer, unassigned) [Compound 245] | 100 to 1000 nM | 
4 | O=C(Nc1ccc2cc(Cl)ccc2n1)[C@H]1CC[C@H](c2nnc([C@H]3CNc4cc(Cl)ccc4O3)o2)CC1 (single isomer, unassigned) [Compound 246] | 100 to 1000 nM | 
5 | O=C(NC[C@H]1CC[C@H](c2nnc(-c3ccc(Cl)cc3)o2)CC1)c1ccc2cc(Cl)ccc2n1 [Compound 1, trans-6-chloro-N-((4-(5-(4-chlorophenyl)-1,3,4-oxadiazol-2-yl)cyclohexyl)methyl)quinoline-2-carboxamide] |  | IC50 (ATF4; 3 h): > 1000 nM; activity at 1 µM ([1]; CHO, 2 h): 158%
6 | O=C(COc1ccc(Cl)cc1)NC[C@H]1CC[C@H](c2nnc(-c3ccc(Cl)cc3)o2)CC1 [Compound 4, trans-2-(4-chlorophenoxy)-N-((-4-(5-(4-chlorophenyl)-1,3,4-oxadiazol-2-yl)cyclohexyl)methyl)acetamide] |  | IC50 (ATF4; 3 h): > 1000 nM; activity at 1 µM ([1]; CHO, 2 h): 123%
7 | O=C(Nc1ccc2cc(Cl)ccc2n1)[C@H]1CC[C@H](c2nnc(CO[C@H]3C[C@@H](OC(F)(F)F)C3)o2)CC1 [Compound 38, trans-N-(6-chloroquinolin-2-yl)-4-(5-((cis-3-(trifluoromethoxy)cyclobutoxy)methyl)-1,3,4-oxadiazol-2-yl)cyclohexanecarboxamide] | 100 to 1000 nM | 
8 | O=C(Nc1nc2cc(Cl)ccc2s1)[C@H]1CC[C@H](c2nnc(CO[C@H]3C[C@@H](OC(F)(F)F)C3)o2)CC1 [Compound 39, trans-N-(5-chlorobenzo[d]thiazol-2-yl)-4-(5-((cis-3-(trifluoromethoxy)cyclobutoxy)methyl)-1,3,4-oxadiazol-2-yl)cyclohexanecarboxamide] | > 1000 nM | 
9 | O=C(Nc1nc2cc(Cl)ccc2o1)[C@H]1CC[C@H](c2nnc(CO[C@H]3C[C@@H](OC(F)(F)F)C3)o2)CC1 [Compound 41, trans-N-(5-chlorobenzo[d]oxazol-2-yl)-4-(5-((cis-3-(trifluoromethoxy)cyclobutoxy)methyl)-1,3,4-oxadiazol-2-yl)cyclohexanecarboxamide] |  | IC50 (ATF4; 3 h): 100 to 1000 nM
10 | O=C(Nc1ccc2cc(Cl)ccc2n1)C1CCN(c2nnc([C@H]3C[C@@H](OC(F)(F)F)C3)o2)CC1 [Compound 50, N-(6-chloroquinolin-2-yl)-1-(5-(cis-3-(trifluoromethoxy)cyclobutyl)-1,3,4-oxadiazol-2-yl)piperidine-4-carboxamide] | 100 to 1000 nM | 
11 | O=C(Nc1nc2cc(Cl)ccc2s1)[C@H]1CC[C@H](c2nnc([C@H]3C[C@@H](OC(F)(F)F)C3)o2)CC1 [Compound 52, trans-N-(5-chlorobenzo[d]thiazol-2-yl)-4-(5-(cis-3-(trifluoromethoxy)cyclobutyl)-1,3,4-oxadiazol-2-yl)cyclohexanecarboxamide] | 10 to 100 nM | 
12 | O=C(NCc1cc2cc(Cl)ccc2o1)[C@H]1CC[C@H](c2nnc(-c3cc4cc(Cl)ccc4o3)o2)CC1 [Compound 54, trans-4-(5-(5-chlorobenzofuran-2-yl)-1,3,4-oxadiazol-2-yl)-N-((5-chlorobenzofuran-2-yl)methyl)cyclohexanecarboxamide] | 100 to 1000 nM | 
13 | O=C(Nc1nc2cc(Cl)ccc2o1)[C@H]1CC[C@H](c2nnc([C@H]3C[C@@H](OC(F)(F)F)C3)o2)CC1 [Compound 241, trans-N-(5-chlorobenzo[d]oxazol-2-yl)-4-(5-(3-(cis-trifluoromethoxy)cyclobutyl)-1,3,4-oxadiazol-2-yl)cyclohexanecarboxamide] | 100 to 1000 nM | 
14 | O=C(Nc1ccc2cc(Cl)ccc2n1)[C@H]1CC[C@H](c2nnc([C@H]3C[C@@H](C(F)(F)F)C3)o2)CC1 [Compound 248, trans-N-(6-chloroquinolin-2-yl)-4-(5-(cis-3-(trifluoromethyl)cyclobutyl)-1,3,4-oxadiazol-2-yl)cyclohexanecarboxamide] | 100 to 1000 nM | 
15 | O=C(Nc1ccc2cc(Cl)ccc2n1)[C@H]1CC[C@@H](c2cnn(-c3ccc(Cl)cc3)c2)CC1 [Compound 249, cis-4-(1-(4-chlorophenyl)-1H-pyrazol-4-yl)-N-(6-chloroquinolin-2-yl)cyclohexanecarboxamide] | 100 to 1000 nM | 
16 | O=C(NN1CCC(c2nnc([C@H]3C[C@@H](OC(F)(F)F)C3)o2)CC1)c1cc2cc(Cl)ccc2o1 [Compound 251, 5-chloro-N-(4-(5-(cis-3-(trifluoromethoxy)cyclobutyl)-1,3,4-oxadiazol-2-yl)piperidin-1-yl)benzofuran-2-carboxamide] | < 10 nM | 
17 | O=C(NN1CCC(c2nnc([C@H]3C[C@@H](OC(F)(F)F)C3)o2)CC1)C1CNc2cc(Cl)ccc2O1 (some centres unmarked) [Compound 252, 6-chloro-N-(4-(5-((1s,3s)-3-(trifluoromethoxy)cyclobutyl)-1,3,4-oxadiazol-2-yl)piperidin-1-yl)-3,4-dihydro-2H-benzo[b][1,4]oxazine-2-carboxamide] | < 10 nM | 

Second part, led by results:

Row | IC50 (ATF4; [2]) | Structure (SMILES) | further results
18 | 100 to 1000 nM | O=C(NC[C@H]1CC[C@H](c2nnc(-c3ccc(Cl)cc3)o2)CC1)c1cc2cc(Cl)ccc2o1 [Compound 2, trans-5-chloro-N-((4-(5-(4-chlorophenyl)-1,3,4-oxadiazol-2-yl)cyclohexyl)methyl)benzofuran-2-carboxamide] | activity at 1 µM [1, 3]: 136%
19 | 10 to 100 nM | O=C(COc1ccc(Cl)c(F)c1)NC[C@H]1CC[C@H](c2nnc(-c3ccc(Cl)cc3)o2)CC1 [Compound 3, trans-2-(4-chloro-3-fluorophenoxy)-N-((4-(5-(4-chlorophenyl)-1,3,4-oxadiazol-2-yl)cyclohexyl)methyl)acetamide] | activity at 1 µM [1, 3]: 138%
20 | 100 to 1000 nM | O=C(NC[C@H]1CC[C@H](c2nnc(-c3ccc(Cl)cc3)o2)CC1)c1ccc(C(F)(F)F)cn1 [Compound 20, trans-N-((4-(5-(4-chlorophenyl)-1,3,4-oxadiazol-2-yl)cyclohexyl)methyl)-5-(trifluoromethyl)picolinamide] | 
21 | 100 to 1000 nM | O=C(NC[C@H]1CC[C@H](c2nnc(-c3ccc(Cl)cc3)o2)CC1)c1ccc(C(F)(F)F)nc1 [Compound 21, trans-N-((4-(5-(4-chlorophenyl)-1,3,4-oxadiazol-2-yl)cyclohexyl)methyl)-6-(trifluoromethyl)nicotinamide] | 
22 | 10 to 100 nM | O=C(Nc1ccc2cc(Cl)ccc2n1)[C@H]1CC[C@H](c2nnc(COc3ccc(Cl)cc3)o2)CC1 [Compound 40, trans-4-(5-((4-chlorophenoxy)methyl)-1,3,4-oxadiazol-2-yl)-N-(6-chloroquinolin-2-yl)cyclohexanecarboxamide] | 
23 | 100 to 1000 nM | O=C(Nc1ccc2cc(Cl)ccc2n1)C1CCN(c2nnc(-c3ccc(Cl)cc3)o2)CC1 [Compound 49, 1-(5-(4-chlorophenyl)-1,3,4-oxadiazol-2-yl)-N-(6-chloroquinolin-2-yl)piperidine-4-carboxamide] | 
24 | 100 to 1000 nM | O=C(NCc1cc2cc(Cl)ccc2o1)[C@H]1CC[C@H](c2nnc(-c3ccc(Cl)cc3)o2)CC1 [Compound 51, trans-N-((5-chlorobenzofuran-2-yl)methyl)-4-(5-(4-chlorophenyl)-1,3,4-oxadiazol-2-yl)cyclohexanecarboxamide] | 
25 | 100 to 1000 nM | O=C(NCc1cc2cc(Cl)ccc2o1)[C@H]1CC[C@H](c2nnc(COc3ccc(Cl)cc3)o2)CC1 [Compound 53, trans-N-((5-chlorobenzofuran-2-yl)methyl)-4-(5-((4-chlorophenoxy)methyl)-1,3,4-oxadiazol-2-yl)cyclohexanecarboxamide] | 
26 | 100 to 1000 nM | O=C(NC[C@H]1CC[C@H](c2nnc(-c3ccc(Cl)cc3)o2)CC1)[C@H]1C[C@@H](O)c2cc(Cl)ccc2O1 [Compound 253, (2R,4R)-6-chloro-N-((trans-4-(5-(4-chlorophenyl)-1,3,4-oxadiazol-2-yl)cyclohexyl)methyl)-4-hydroxychroman-2-carboxamide] | 
